Experimental data published in US20250248980A1, “IMMUNE MODULATORY AGENTS” (PRESIDENT AND FELLOWS OF HARVARD COLLEGE, priority 2022, published 2025).
“Also recorded” adds a separate entry of the source.

Assays:
Format in all cases: cell-based
[1] = test system: TNF-a downstream genes in HepG2 cells; assay: TNF-a-dependent gene expression in HepG2 cells (RT-qPCR, FIG. 12C); settings: 10 μM compound, 5 ng/ml TNF-a, 24 hours; IL18, CXCL1, CXCL5
Method: (§1) THP-1 (FIG. 12A), 293T (FIG. 12B), and HepG2 (FIG. 12C) cells were cultured and stimulated with 5 ng/ml TNF-a for 24 hours. During the treatment, 10 μM of each compound was added. RT-qPCR was used to analyze the expression levels of selected TNF-a downstream genes (IL1b, CCL4 and CXCL1 in THP-1 cells in FIG. 12A; IL18, VCAM, and CXCL10 in 293T cells in FIG. 12B; and IL18, CXCL1, and CXCL5 in HepG2 cells in FIG. 12C).

[2] = test system: TNF-a downstream genes in THP-1 cells; assay: TNF-a-dependent gene expression in THP-1 cells (RT-qPCR, FIG. 12A); settings: 10 μM compound, 5 ng/ml TNF-a, 24 hours; IL1b, CCL4, CXCL1
Method: as §1

[3] = target: T1, TNF-a receptor (TNF-R1 reporter cells) (Homo sapiens, UniProt P19438); assay: TNF-a-receptor GFP reporter cell screen; settings: for specificity for TNF-a-receptor reporter over other cytokine receptor reporters: in words; for IC50 / Emax: reducing TNF-a-receptor reporter activities; for IC50: GFP percentage by microscope, 48 hours; for Emax: maximal effect at high compound concentrations, read-out: Emax
T1 construct: expressed in transfected cells; development described in WO2022125865A2
Method: FIG. 5 is a dot plot showing the identification of small-molecule compounds that reduce IL-17A or TNF-a receptor activities. Small-molecule screens were performed with 114,665 compounds. Individual compounds were added to IL-17A-reporters or TNF-a-reporters following the addition of respective ligands such as IL-17A or TNF-a (25 ng/ml). The reporter cells were then incubated for additional 48 hours before subjecting them for microscopic analyses (GFP percentage was measured by microscope). Anti-IL17A and anti-TNFa antibodies were used as the positive controls.
The IL-17RA/IL-17RC reporter system was used to identify the IL-17a-specific immune modulatory agents, as described herein (see e.g., compounds (1)-(16)). Furthermore, the IL-17A systems and methods were applied to generate other cytokine/cytokine receptor reporter system (tTA fused onto one receptor subunit via a protease cleavage site, TEV fused to another receptor subunit, optimal linkers inserted between different proteins to ensure high signal-to-background ratio; e.g., for identifying TNF-α-specific immune modulatory agents). The screening platform provided herein was used to identify immune modulatory agents including, but not limited to, small molecules and proteins that modulate IL-17A or TNF-α cytokine signaling.
Two thousand reporter cells per well (384-well plates) were seeded in 30 ul cell culture medium with either IL-17A (25 ng/ml, unless otherwise indicated) or TNFa ligand (25 ng/ml, unless otherwise indicated); additional screens were performed with IL-17A at 7.5 ng/ml. Then 100 nl of the individual compound was added by a pin transfer and cultured for two days in a CO2 incubator. For the cell viability test, 10 ul HOECHST 33342 was added and incubated for 10 min, followed by the addition of 10 ul 4% PFA. After a 10 min incubation, the reporter cells were washed twice with phosphate-buffered saline (PBS) and kept in 30 ul PBS. The images were acquired and analyzed using an IMAGEXPRESS confocal microscope. For storage, plates were sealed with black light-absorbing films.

TNF-a downstream genes = assay: TNF-a-dependent gene expression in three cell lines (RT-qPCR, secondary assays, FIG. 12); settings: 10 μM compound, 5 ng/ml TNF-a, 24 hours, THP-1, 293T, HepG2 cells
Method: as §1

[4] = test system: TNF-a downstream genes in 293T cells; assay: TNF-a-dependent gene expression in 293T cells (RT-qPCR, FIG. 12B); settings: 10 μM compound, 5 ng/ml TNF-a, 24 hours; IL18, VCAM, CXCL10
Method: as §1

SMILES	effect on TNF-a-dependent gene expression in HepG2 cells [1]	effect on TNF-a-dependent gene expression in THP-1 cells [2]	specificity for TNF-a-receptor reporter over other cytokine receptor reporters [3]	IC50 [3] [µM]	Emax [3] [%]	effect on TNF-a-dependent gene expression (TNF-a downstream genes)	effect on TNF-a-dependent gene expression in 293T cells [4]
O=c1ccc(-c2ccccc2)nn1Cc1c(F)cccc1Cl [Compound 19]	enhanced effects	robust inhibitory effects	reduce TNF-a-, not IL-17A-, receptor reporter activities	7.46	98	inhibitory effects against some of TNF-a downstream genes	enhanced effects
CC(=O)N1CCCN(S(C)(=O)=O)CCN(Cc2cccc(F)c2O)Cc2ccccc21 [Compound 15]						inhibitory effects against some of TNF-a downstream genes	
CC(C)CCN1C2CCNc3ccccc3CN(C(=O)CCCn3cncn3)CC1CC2 (racemic) [Compound 43]						inhibitory effects against some of TNF-a downstream genes	
O=C(CSc1c2c(nc3ccccc13)CCC2)Nc1ccc(F)cc1 [Compound 39]			reduce TNF-a-, not IL-17A-, receptor reporter activities	8.91	78	inhibitory effects against some of TNF-a downstream genes; also recorded: robust inhibitory effects	
